# Measured values from PMC10312039 (Journal of Enzyme Inhibition and Medicinal Chemistry, 2023).
# Legend:
# [1] = In vitro preliminary safety assessment: cytotoxicity on THP-1 cells; format: cell-based; details: human, PMA-treated THP-1 monocytic cells
# [2] = tested on: L. donovani promastigotes; experiment: In vitro potency; format: cell-based; details: Leishmania donovani, 72 h, read-out: IC50 against L. donovani promastigotes
IC50 [2],SMILES,CC50 at 72 h [1]
9.8 µM,CCCCCCCC/C=C\CCCCCCCCCCCCOP(=O)([O-])OCC[N+](C)(C)C [Erufosine],19.4 µM
3.5 µM,CCCCCCCCCCCCCCCCOP(=O)([O-])OCC[N+](C)(C)C [Miltefosine],–
